Experiments:
359 wild-type kinases = tested on: 359 wild-type kinases; design: method as in PMID 19053485; conditions: kinome-wide screen; cited from earlier work
GSK3B = GSK3B (Homo sapiens, UniProt P49841); test: NanoBRET; format: cell-based; design: Full-length kinases were obtained as plasmids cloned in frame with a terminal NanoLuc-fusion; host or cells: HEK293T
Experimental: The assay was performed as described previously. In brief: Full-length kinases were obtained as plasmids cloned in frame with a terminal NanoLuc-fusion (Promega, Madison, WI, USA), as specified in table (Table S6). Plasmids were transfected into HEK293T cells using FuGENE HD (Promega, E2312) and proteins were allowed to express for 20h. Serially diluted inhibitor and NanoBRET Kinase Tracer (Promega) at a concentration determined previously as the KD,app (Table S5) were pipetted into white 384-well plates (Greiner 781207) using an Echo acoustic dispenser (Labcyte, San Jose, CA, USA). The corresponding protein-transfected cells were added and reseeded at a density of 2.5 × 10^5 cells/mL after trypsinization and resuspending in Opti-MEM without phenol red (Life Technologies, Carlsbad, CA, USA). The system was allowed to equilibrate for 2 h at 37 °C/5% CO2 prior to BRET measurements. To measure BRET, NanoBRET NanoGlo Substrate + Extracellular NanoLuc Inhibitor (Promega, N2540) was added as per the manufacturer’s protocol, and filtered luminescence was measured on a PHERAstar plate reader (BMG Labtech, Ortenberg, Germany) equipped with a luminescence filter pair (450 nm BP filter (donor) and 610 nm LP filter (acceptor)). […]

GSK3B, sequence (P49841 whole entry, the tested form may be a part): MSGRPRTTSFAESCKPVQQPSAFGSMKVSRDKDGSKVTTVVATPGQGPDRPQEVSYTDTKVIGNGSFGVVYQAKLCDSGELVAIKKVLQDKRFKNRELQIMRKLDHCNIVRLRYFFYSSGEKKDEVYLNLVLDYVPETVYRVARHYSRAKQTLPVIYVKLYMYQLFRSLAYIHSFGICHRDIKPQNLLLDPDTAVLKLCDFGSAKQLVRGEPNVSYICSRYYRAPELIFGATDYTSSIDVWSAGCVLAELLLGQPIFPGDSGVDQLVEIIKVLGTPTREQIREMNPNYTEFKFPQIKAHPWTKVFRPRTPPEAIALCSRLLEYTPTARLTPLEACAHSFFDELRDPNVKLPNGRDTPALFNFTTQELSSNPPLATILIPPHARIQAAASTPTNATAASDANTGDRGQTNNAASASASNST

| Structure (SMILES) | number of kinases targeted of 359 wild-type kinases (359 wild-type kinases) | NanoBRET EC50 GSK3B (GSK3B) |
| --- | --- | --- |
| N#CCc1ccc(Nc2nccc(Nc3cc(C4CC4)[nH]n3)n2)cc1 [compound 1, reference compound] | 337 |  |
| CC(C)(C)OC(=O)Nc1ccc(CNc2nccc(Nc3cc(C(=O)OC(C)(C)C)[nH]n3)n2)cc1 [43d, tert-butyl 3-((2-((4-((tert-butoxycarbonyl)amino)benzyl)amino)pyrimidin-4-yl)amino)-1H-pyrazole-5-carboxylate] |  | negligible |
